In patent US20060246117A1, “Animal husbandry method for administering a vitamin E derivative and formulation” (ADISSEO FRANCE S.A.S., priority 2003, published 2006):

Experiments:
CaCo-2 = test: Absorption of Tol and Tac by CaCo-2 cells in M20 medium, one hour at 37° C., non-ethoxylated versus ethoxylated emulsifiers (Example 3); type: in vitro ADME
Protocol: Absorption assays are carried out, using the same cell line as that described above, by incubating the cells for 3 hours in a physiological medium which is similar to the intestinal medium and which contains cholesterol ester hydrolase (CEH), the pancreatic enzyme which hydrolyzes the Tac into vitamin E in the animal, and sodium taurocholate, which represents the bile salts. This medium comes in the form of an oil-in-water emulsion, i.e. in the form of micelles, and is commercially identified under the reference M20. The Tac, and, where appropriate, the emulsifier being tested, are placed in this medium. The concentration, in vitamin E equivalent, which is introduced into each well in the form of Tac is 156 μM.
The general experimental conditions of the protocol described in Example 2, 2.1) are identical apart from the fact that the area of the wells and the concentration of Tac introduced into the M20 medium differ. The area of the wells is 6.5 cm^2 and the concentration of Tac is 23.7 μM/cm^2.
Four experiments are carried out, with each being repeated three times, using a protocol which comprises one hour of incubation at 37° C., as follows: • 1) M20 on its own, at the rate of 2 mM; the Tac is therefore on its own without emulsifier; • 2) M20+SML (sorbitan monolaurate) emulsifier • 3) M20+SMP (sorbitan monopalmitate) emulsifier • 4) M20+ESML (ethoxylated sorbitan monolaurate)
In the case of each of the assays 2), 3) and 4), the ratio by weight of the added emulsifier to the Tac (in vitamin E equivalent) is 1:6.9.
Four experiments are carried out, with each being repeated three times, using a protocol which comprises one hour of incubation at 37° C., as follows: • 1) M20 on its own; the Tac is therefore on its own without emulsifier; • 2) M20+SML (sorbitan monolaurate) emulsifier • 3) M20+SMP (sorbitan monopalmitate) emulsifier • 4) M20+MOSE (ethoxylated sorbitan monooleate)

[1] = Release of Tac from its silica support (Example 4); type: physicochemical; settings: 2.5 hours, 38° C., Tac on silica
Protocol: The present example tests the effect of an emulsifier according to the invention, i.e. SMO (sorbitan monooleate), on the release of Tac which is attached to silica. To this end, use is made of Tac on a silica support, in a ratio by weight of 1:1, for the assay without emulsifier, and of Tac+emulsifier (SMO) on silica in a ratio by weight of 50:5:45.
10 g of Tac (where appropriate +SMO) on the above silica (that is a final concentration of Tac of 10 mM) are incubated for 2.5 hours, while stirring and at 38° C., under different pH conditions in the following solutions:
either 35 mM phosphate, pH 6.5, 0.15 mM NaCl
or 35 mM HCl/glycine, pH 2.5

[2] = tested on: cholesterol ester hydrolase (pancreatin); test: Combined release of Tac from silica support and hydrolysis of the released Tac to Tol (Example 6); type: in vitro ADME
Protocol: The present example tests the effect of an emulsifier according to the invention, i.e. SMO (sorbitan monooleate). For this purpose, use is made of Tac on a silica support, in a ratio by weight of 1:1, for the assay without emulsifier, and of Tac+emulsifier (SMO) on silica, in a ratio by weight of 50:5:45.
8 mg of Tac (where appropriate +SMO) on the above silica (that is a final concentration of Tac of 16.9 μM) are incubated for 3 hours, while stirring and at 37° C., in the following solutions:
35 mM phosphate, pH 6.5, […] NaCl, pancreatin (2 mg) and bile salts (20 mM).
Before incubating, and after 1 hour and 3 hours, respectively, of incubation under the aforementioned conditions, the concentration of vitamin E in the solution is measured in comparison with the initial quantity of Tac.

[3] = Digestibility of vitamin E from faecal excretion in caecectomized cocks (Example 7); type: in vivo; settings: treatment 1: Tac 40 mg, no emulsifier
Protocol: Two series of tests were carried out on caecectomized cocks. The first series comprised 32 cocks while the second comprised 51 cocks. They were fed, by “wet gavage”, with a feed which incorporated Tac (vitamin E acetate) or Tac combined, in different proportions, with one or two alimentary emulsifiers according to the invention. The Tac or the combined Tac was formulated in gelatin capsules, which were obtained by using a pipette to deposit a predetermined quantity of Tac or combined Tac in a capsule half shell and then closing the capsule with the other half shell. 48 hours after the ingestion of feed from a bowl, the faeces are collected and the excretion of the vitamin in this material is determined. To this end, the vitamin E is extracted with a vitamin E solvent, for example hexane, and the quantity extracted is then determined by HPLC chromatography. The proportion of vitamin E which has been digested is deduced from the proportion which has been excreted.

[4] = target: T1, cholesterol ester hydrolase (Homo sapiens, UniProt P19835); test: Tac hydrolysis in M40 micelle above CaCo-2 cells, 2 hours (Example 8.2); type: in vitro ADME; settings: Tac 67 nmol/cm^2; Tac/emulsifier ratio 100/1; 2 hours at 37° C.
T1 sequence (P19835 21-753): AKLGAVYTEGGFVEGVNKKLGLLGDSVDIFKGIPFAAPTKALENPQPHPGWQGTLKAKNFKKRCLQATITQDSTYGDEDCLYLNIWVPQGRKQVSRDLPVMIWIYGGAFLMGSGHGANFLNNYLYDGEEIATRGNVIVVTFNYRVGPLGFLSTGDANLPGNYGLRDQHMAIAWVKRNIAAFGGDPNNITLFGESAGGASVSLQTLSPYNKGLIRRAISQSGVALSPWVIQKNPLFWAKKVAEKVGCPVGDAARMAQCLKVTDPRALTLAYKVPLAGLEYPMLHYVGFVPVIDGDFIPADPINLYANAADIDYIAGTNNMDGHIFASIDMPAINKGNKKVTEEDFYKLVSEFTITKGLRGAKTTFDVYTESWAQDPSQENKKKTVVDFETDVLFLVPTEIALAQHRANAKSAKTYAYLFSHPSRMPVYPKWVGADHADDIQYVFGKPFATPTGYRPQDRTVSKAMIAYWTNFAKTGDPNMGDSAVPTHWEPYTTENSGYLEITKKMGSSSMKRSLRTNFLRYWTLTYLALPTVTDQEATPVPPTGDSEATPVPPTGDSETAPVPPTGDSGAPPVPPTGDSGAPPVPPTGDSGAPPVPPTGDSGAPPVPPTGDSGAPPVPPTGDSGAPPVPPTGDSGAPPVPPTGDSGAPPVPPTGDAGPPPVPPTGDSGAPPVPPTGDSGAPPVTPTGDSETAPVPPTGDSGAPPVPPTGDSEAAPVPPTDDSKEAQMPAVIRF
Protocol: The conditions under which the tests are carried out are as follows: • Cell model: CaCo-2 cells • Area of the wells: 4.2 cm^2 • Quantity of Tac: 67 nmol/cm^2 • Solution employed: M40 micelle in accordance with Mathias et al.
Treatments: • A: Without emulsifier • B: With emulsifier (SMP+SMO mixture; ratio 1/1), Tac/emulsifier ratio 100/1
Period of incubation: 2 hours at 37° C.
Analyses: Analysis of Tac in the medium above the cells for the purpose of calculating the degree of hydrolysis.

[5] = Plasma vitamin E level of piglets after intraduodenal infusion (Example 9); type: in vivo; settings: 800 IU single bolus intraduodenally; pooled samples 4-24 h postprandially
From the text: In order to exclude gastric influences or impacts of the carrier, the emulsifier of the invention was intraduodenally infused in liquid form (oil).
Three weaning piglets (initial BW 12 kg) were surgically fitted with a silicon catheter in the jugular vein as well as with a silicon cannula in the proximal duodenum according to the procedure described by Thaela et al. (1995).
A standard weaner diet without vitamin E supplementation was fed to the piglets. The animals were fed a daily feed allowance corresponding to 2.0×W^0.75, distributed twice in equal meals (08.00 h and 16.00). The animals were adapted for 7d to the basal diet. […] 2 treatments×3 piglets×2 repetitions (cross-over)
R1: 800 IU Vitamin E standard oil, infused as a single bolus intraduodenally
Blood samples were taken 4, 8, 12, 16, 20 and 24 h postprandially, plasma was obtained and samples were pooled. After the experiment, the animals were newly adapted to the basal diet for 7d before the 2nd repetition was done accordingly. The vitamin E content in the plasma was determined by HPLC according to the method by Castan et al. (2005). Data were analysed using the ANOVA procedure of Statview.

[6] = Plasma and liver vitamin E levels of broilers fed graded doses (Example 10); type: in vivo, Ross male broiler chicks; settings: d35, diets fed d15 to d34
From the text: R3: Control+120 IU/kg standard Vit E
R4: Control+200 IU/kg standard Vit E
Three hundred Ross male broiler chicks were divided into 6 groups and housed in 6 pens. From d0 to d14, all animals were fed the same, vitamin E free, basal diet.
The animals received the pelleted experimental diets (R1-R6) ad libitum from d15 to d34. On d35, 15 broilers per treatment, which were closest to the mean body weight, were selected. Plasma samples were collected by intracardiac puncture. Birds were then slaughtered by pentobarbital injection. Livers were dissected, deep frozen in liquid nitrogen and immediately ground. The vitamin E levels in plasma or livers were determined by HPLC according to the method by Castan et al. (2005). Data were analysed using the ANOVA procedure of Statview.

[7] = Vitamin E levels in egg yolks of laying hens (Example 11); type: in vivo, ISA brown laying hens; settings: supplementation level of 100 mg/kg feed
Protocol: Forty ISA brown laying hens, 23 weeks of age, were equally divided into 4 groups and individually housed in cages. The animals received the meal experimental diets (R1-R4) ad libitum for 21 days. The eggs layed on D20 to 21 were collected, weighed and stored at +4° C. The vitamin E levels in the egg yolk were determined by HPLC according to the method by […] et al. (2005). Data were analysed using the ANOVA procedure of Statview.

[8] = in vivo
From the text: (§1) R1: Basal diet+20 IU/kg standard Vit E (in the form of dl-α-tocopheryl acetate)
R2: Control+150 IU/kg standard Vit E
(§2) Thirty crossbred weanling piglets (8.0 kg live weight) were divided into three groups (R1, R2, R3), kept individually and distributed according to a completely randomized block design. The piglets were fed ad libitum for 14 days on a corn-wheat based diet (Table 11). The diet was supplemented with either 20 IU/kg (R1) or 150 IU/kg (R2) standard DL-α-tocopheryl acetate. […] On day 15 of the experiment the animals were slaughtered and their liver dissected, immediately frozen under liquid nitrogen and ground to powder. Muscle samples (muscularis glutaeus maximus) of about 9 cm2 were obtained from the left hind leg and frozen immediately. The vitamin E content of the samples was determined by HPLC (Castan et al. 2005) and data were statistically analysed using one-way ANOVA.

[9] = oral route, animals; cited from earlier work
[10] = Vitamin E levels in liver and muscle of piglets (Example 13); settings: points at 20 IU/kg and 150 IU/kg
From the text: as §1
R2: Control+150 IU/kg standard Vit E
as §2

[11] = Example 3.2, emulsifier:Tac 1:6.9
[12] = Example 3.3, emulsifier:Tac 1:6.9

SMILES: CC(=O)Oc1c(C)c(C)c2c(c1C)CC[C@@](C)(CCC[C@H](C)CCC[C@H](C)CCCC(C)C)O2 [Tac, d,l-α-tocopheryl acetate]
- Absorption, Tac (CaCo-2; [11]): 1.68 nmol/cm^2
- Absorption, Tol (CaCo-2; [11]): 1.77 nmol/cm^2
- Absorption, Vitamin E (Tol + Tac in vitamin E equivalent) (CaCo-2; [11]): 3.45 nmol/cm^2
- Absorption, Tac (CaCo-2; [12]): 2.31 nmol/cm^2
- Absorption, Tol (CaCo-2; [12]): 1.29 nmol/cm^2
- Absorption, Vitamin E (Tol + Tac in vitamin E equivalent) (CaCo-2; [12]): 3.60 nmol/cm^2
- % of vitamin E released at pH 2.5 ([1]; 35 mM HCl/glycine, pH 2.5): 46.5%
- % of vitamin E released at pH 6.5 ([1]; 35 mM phosphate, pH 6.5): 59.6%
- concentration of vitamin E in the solution in comparison with the initial quantity of Tac ([2]; time 0 minutes (before incubating)): 1.21
- concentration of vitamin E in the solution in comparison with the initial quantity of Tac ([2]; time 60 minutes): 1.30
- concentration of vitamin E in the solution in comparison with the initial quantity of Tac ([2]; time 180 minutes): 5.25
- Mean digestibility ([3]; first series, faeces at 48 hours): 24.8%
- Mean digestibility ([3]; second series): 26.1%
- Tac hydrolysis [4]: 9.7%
- overall plasma vitamin E level [5]: 5.72 nmol/mL
- slope of the curve of liver vitamin E level versus dietary dose ([6]; liver): 0.1896
- slope of the curve of plasma vitamin E level versus dietary dose ([6]; plasma): 0.1211
- total vitamin E content of the yolk [7]: 4.07 mg
- increase of vitamin E content in liver as compared to piglets fed 20 IU/kg DL-α-tocopheryl acetate [8]: 51%
- increase of vitamin E content in muscle as compared to piglets fed 20 IU/kg DL-α-tocopheryl acetate [8]: 35%
- bioavailability [9]: ≤ 40%
- slope of the regression curve for vitamin E contents in livers [10]: 1.89
- slope of the regression curve for vitamin E contents in muscle samples [10]: 0.89

SMILES: Cc1c(C)c2c(c(C)c1O)CC[C@@](C)(CCC[C@H](C)CCC[C@H](C)CCCC(C)C)O2 [vitamin E, d-α-tocopherol]
- bioavailability [9]: ≤ 50%
